Measurements from PubChem BioAssay (NCI).
Several values for one entry are separate records, joined by “and”; a condition that tells them apart may be missing. Equal values may be shown once.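 Dose response: 5 concentrations. Exposure: 48 h. Format: 96-well plates. Endpoint: linear interpolation; highest concentration if not reached. GI50 marks 50% less growth. Definition used: TGI = concentration required for complete inhibition of growth.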

Experiments:
Assay in all cases: NCI tumour cell line growth inhibition, 48 h
SNB-78 CNS = system: SNB-78 CNS
SNB-75 CNS = system: SNB-75 CNS
HL-60(TB) leukemia = system: HL-60(TB) leukemia
UO-31 renal = system: UO-31 renal
HT29 colon = system: HT29 colon
SK-MEL-5 melanoma = system: SK-MEL-5 melanoma
DMS 273 small cell lung = system: DMS 273 small cell lung
BT-549 breast = system: BT-549 breast
HOP-92 NSCLC = system: HOP-92 NSCLC
PC-3 prostate = system: PC-3 prostate

Compound | GI50 (SNB-78 CNS) [µM] | TGI (SNB-78 CNS) [µM] | GI50 (SNB-75 CNS) [µM] | TGI (SNB-75 CNS) | GI50 (HL-60(TB) leukemia) | TGI (UO-31 renal) | TGI (HT29 colon) | GI50 (SK-MEL-5 melanoma) [µM] | TGI (SK-MEL-5 melanoma) | GI50 (DMS 273 small cell lung) [µM] | TGI (DMS 273 small cell lung) [µM] | GI50 (BT-549 breast) [µM] | TGI (BT-549 breast) [µM] | GI50 (HOP-92 NSCLC) [µM] | TGI (HOP-92 NSCLC) | GI50 (PC-3 prostate) [µM] | TGI (PC-3 prostate) [µM] | TGI (HL-60(TB) leukemia) [µM] | GI50 (UO-31 renal) [µM] | GI50 (HT29 colon) [µM]
C/C(=N\NC(=O)c1ccccc1O)c1cccc(/C(C)=N/NC(=O)c2ccccc2O)n1 | 46.2 | > 100 | 23 | 33.5 µM and > 61.9 µM | 0.784 µM and 0.504 µM | 52.5 µM and > 57.4 µM | > 100 µM | 0.621 | 44.9 µM and > 48 µM | 20.4 | > 100 | 0.441 | > 100 | 0.908 | 67.3 µM and 36.8 µM | 0.626 | > 100 | – | – | –
Nc1ncnc2c(C3OC(CO)C(O)C3O)[nH]nc12 (stereo unspecified) | – | 40.4 | – | 5.29 µM and 1.25 µM | 0.0142 µM | – | 10.5 µM and 4.62 µM | 0.984 | 10.9 µM and 7.47 µM | – | 1.58 | 0.113 | 3.38 | 0.202 | – | 0.0474 | 8.97 | 0.111 | 0.0619 | –
CCC[CH2][Ge]([CH2]CCC)([CH2]CCC)[O]C(=O)C(OC)c1ccccc1 (stereo unspecified) | > 100 | > 100 | 41.1 | > 100 µM | 2.96 µM | > 100 µM | > 100 µM | 17.5 | > 63.1 µM | 17.6 | > 75.9 | – | – | 9.53 | 98.3 µM | – | – | > 26.1 | > 41.7 | 25.4
CCOC(=O)N1N=NC2C3OC(C[C@@]3(C#N)OC(C)=O)[C@H]21 (stereo partly specified) | – | > 100 | – | > 100 µM | – | > 100 µM | > 100 µM | – | > 100 µM | – | > 100 | – | – | – | > 100 µM | – | – | > 100 | – | –
CC(=O)OC1C/C(C)=C/CCC(C)/C=C/C2(C)CCC(C(C)(C)O)C12 (stereo unspecified) | – | > 100 | – | > 100 µM | – | > 100 µM | > 100 µM | – | > 100 µM | – | > 100 | – | – | – | 51.4 µM | – | – | 55.5 | – | –
CCC[CH2][Ge]([CH2]CCC)([CH2]CCC)[O]C(=O)C(O)c1ccccc1 (stereo unspecified) | 3.04 | 38.8 | 4.51 | > 100 µM | – | 15.8 µM | 20.8 µM | 1.46 | 13.2 µM | 1.2 | 11.9 | – | – | 0.49 | 15.8 µM | – | – | 4.3 | 0.885 | 3.32
Cc1ccccc1-c1c(N)nc(N)nc1C(=O)Nc1nccs1 | – | > 100 | – | > 100 µM | – | > 100 µM | > 100 µM | – | > 100 µM | – | > 100 | – | – | – | > 100 µM | – | – | > 100 | – | –
